The experiment can be described thus: immunosuppressive activity compared with rapamycin (no test described). The settings on record: relative to rapamycin; qualitative statement, no method or data given.

Take `COC1CC(CC(C)C2CC(=O)C(C)C=C(C)C(O)CC(=O)C(C)CC(C)C=CC=CC=C(C)C(O)CC3CCC(C)C(O)(O3)C(=O)C(=O)N3CCCCC3C(=O)O2)CCC1O` (stereo not shown) [16-desmethyl-27-desmethoxyrapamycin]: the immunosuppressive activity entry is reported as “lower immunosuppressive activity than rapamycin”.

The record behind these values is patent US6670168B1, “Recombinant Streptomyces hygroscopicus host cells that produce 17-desmethylrapamycin” (Kosan Bioscience, Inc., priority 1999, dated 2003).
